Reference: PubChem BioAssay AID977614 (Broad Institute, 2014)
Calls of active or inactive are those of the source.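 The calls were made as follows: active = parasite count per well reduced by over 3 SD from the mean, with host cell number above 80% of untreated; inactive = the rest.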

System: L. donovani amastigotes in THP-1 macrophages, DAPI imaging, 72 h
Assay: L. donovani intracellular amastigote growth inhibitors, imaging, THP-1 host macrophages, single concentration (AID 977614);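 also: signal is the parasite per host cell ratio from DAPI stained kinetoplasts and nuclei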

SMILES	AC50
C/C=C/c1ccc([C@H]2[C@@H](CO)N(CC3CCCC3)[C@H]2CNS(C)(=O)=O)cc1	> 10 µM (inactive)
C[C@@H]1CN([C@@H](C)CO)C(=O)CCCn2cc(nn2)CO[C@@H]1CN(C)C(=O)Nc1cccc(C(F)(F)F)c1	> 10 µM (inactive)
C[C@@H]1CN([C@@H](C)CO)C(=O)CCCn2nncc2CO[C@@H]1CN(C)C(=O)Nc1ccc(-c2cccs2)cc1	> 10 µM (inactive)
C[C@@H]1CN([C@H](C)CO)C(=O)CCCn2cc(nn2)CO[C@H]1CN(C)C(=O)Oc1ccc2ccccc2c1	> 10 µM (inactive)
COCC(=O)N1[C@@H](CO)[C@@H]2c3ccccc3N(C)C[C@@H]21	> 10 µM (inactive)
C[C@H](CO)N1C[C@H](C)[C@H](CN(C)C(=O)c2ccc(N3CCN(C)CC3)cc2)OCc2cnnn2CCCC1=O	> 10 µM (inactive)
COCCN(C[C@H]1[C@H](c2ccccc2)[C@@H](CO)N1C(C)=O)C(=O)c1cccnc1	> 10 µM (inactive)
C[C@H]1CN([C@@H](C)CO)C(=O)CCCn2nncc2CO[C@@H]1CN(C)C(=O)c1cc(-c2ccccc2)on1	> 10 µM (inactive)
CN(C[C@H]1[C@@H](c2ccccc2)[C@@H](CO)N1C(=O)C1CCC1)C(=O)c1ccncc1	> 10 µM (inactive)
CC(=O)NC[C@H]1[C@@H](c2ccc(C#Cc3ccccc3F)cc2)[C@@H](CO)N1C(C)=O	> 10 µM (inactive)
C/C=C/c1ccc([C@H]2[C@@H](CO)N(C(C)=O)[C@H]2CNC(=O)c2ccccc2)cc1	> 10 µM (inactive)
CCCNC(=O)N1C[C@@H]2[C@H](c3ccccc31)[C@H](CO)N2Cc1cccc(OC)c1	> 10 µM (inactive)
COc1ccc(NC(=O)N(C)C[C@@H]2OCc3cnnn3CCCC(=O)N([C@@H](C)CO)C[C@@H]2C)c(OC)c1	> 10 µM (inactive)
C[C@H](CO)N1C[C@H](C)[C@@H](CN(C)S(=O)(=O)c2ccc3c(c2)OCCCO3)OCc2cnnn2CCCC1=O	> 10 µM (inactive)
CCCC(=O)N1C[C@H]2[C@@H](c3ccccc31)[C@H](CO)N2C(=O)Nc1ccc(F)cc1	> 10 µM (inactive)
O=S(=O)(c1ccc(F)cc1)N1C[C@H]2[C@@H](c3ccccc31)[C@@H](CO)N2Cc1ccccc1Cl	> 10 µM (inactive)
C[C@H]1CN([C@@H](C)CO)C(=O)CCCn2nncc2CO[C@H]1CN(C)Cc1ccccc1C(=O)O	> 10 µM (inactive)
C[C@H]1CN([C@@H](C)CO)C(=O)CCCn2nncc2CO[C@@H]1CN(C)C(=O)c1ccc(N2CCN(C)CC2)cc1	> 10 µM (inactive)
O=C(NC[C@@H]1N[C@@H](CO)[C@@H]1c1ccc(-c2ccccc2F)cc1)c1ccccn1	> 10 µM (inactive)
Cc1noc(C)c1NC(=O)N(C)C[C@H]1OCc2cnnn2CCCC(=O)N([C@@H](C)CO)C[C@H]1C	> 10 µM (inactive)
O=C(C1CCOCC1)N1C[C@H]2[C@@H](c3ccccc31)[C@H](CO)N2C(=O)Cc1ccccn1	> 10 µM (inactive)
C[C@@H]1CN([C@@H](C)CO)C(=O)CCCn2cc(nn2)CO[C@H]1CN(C)C(=O)c1ccc(N2CCN(C)CC2)cc1	> 10 µM (inactive)
CCCNC(=O)N1C[C@@H]2[C@H](c3ccccc31)[C@@H](CO)N2Cc1cccc(OC)c1	> 10 µM (inactive)
CCNC[C@@H]1[C@H](c2ccccc2)[C@H](CO)N1C(=O)Cc1ccccn1	> 10 µM (inactive)
CCc1csc(N2[C@H](CO)[C@H](c3ccccc3)[C@@H]2CNC)n1	> 10 µM (inactive)
C[C@H](CO)N1C[C@H](C)[C@H](CN(C)Cc2ccccc2)OCc2cn(nn2)CCCC1=O	> 10 µM (inactive)

SMILES	AC50
O=C(CC(F)(F)F)N1C[C@H]2[C@@H](c3ccccc31)[C@H](CO)N2C(=O)c1ccncc1	> 10 µM (inactive)
O=S(=O)(c1ccccc1)N1C[C@H]2[C@@H](c3ccccc31)[C@@H](CO)N2Cc1ccccn1	> 10 µM (inactive)
CC(=O)N1[C@H](CNC(=O)C2CC2)[C@H](c2ccc(-c3ccccc3)cc2)[C@@H]1CO	> 10 µM (inactive)
O=S(=O)(c1ccc(F)cc1)N1C[C@@H]2[C@H](c3ccccc31)[C@@H](CO)N2Cc1ccccc1Cl	> 10 µM (inactive)
O=C(Nc1ccccc1Cl)N1C[C@H]2[C@@H](c3ccccc31)[C@H](CO)N2C(=O)c1cccnc1	> 10 µM (inactive)
COc1ccccc1NC(=O)N1C[C@@H]2[C@H](c3ccccc31)[C@H](CO)N2CC1CCOCC1	> 10 µM (inactive)
C[C@@H]1CN([C@@H](C)CO)C(=O)CCCn2cc(nn2)CO[C@@H]1CN(C)Cc1ccccc1	> 10 µM (inactive)
CNC[C@H]1OCc2cn(nn2)CCCC(=O)N([C@H](C)CO)C[C@H]1C	> 10 µM (inactive)
C[C@H]1CN([C@@H](C)CO)C(=O)CCCn2nncc2CO[C@@H]1CN(C)S(=O)(=O)c1ccc(Oc2ccccc2)nc1	> 10 µM (inactive)
COCC(=O)N1C[C@@H]2[C@H](c3ccccc31)[C@H](CO)N2Cc1cc(F)ccc1F	> 10 µM (inactive)
O=C(CC1CC1)N1[C@@H]2CN(S(=O)(=O)c3ccccc3F)c3ccccc3[C@@H]2[C@@H]1CO	> 10 µM (inactive)
COc1ccc(C(=O)N2C[C@@H]3[C@H](c4ccccc42)[C@H](CO)N3C(=O)NC(C)C)cc1	> 10 µM (inactive)
CN(C[C@@H]1[C@H](c2ccccc2)[C@@H](CO)N1Cc1ccccn1)S(C)(=O)=O	> 10 µM (inactive)
C/C=C/c1ccc([C@@H]2[C@@H](CO)N(C(C)=O)[C@@H]2CN(CC)C(=O)CN(C)C)cc1	> 10 µM (inactive)
COc1ccc(CN2[C@H](CO)[C@@H]3c4ccccc4N(C(=O)NC(C)C)C[C@@H]32)cc1	> 10 µM (inactive)
O=C(Cc1ccccn1)N1[C@@H](CO)[C@@H]2c3ccccc3NC[C@@H]21	> 10 µM (inactive)
C/C=C/c1ccc([C@H]2[C@@H](CNC(=O)CC3CC3)N(C(=O)CC)[C@H]2CO)cc1	> 10 µM (inactive)
O=C(c1ccc2c(c1)OCO2)N1C[C@@H]2[C@H](c3ccccc31)[C@H](CO)N2Cc1cccnc1	> 10 µM (inactive)
C/C=C/c1ccc([C@@H]2[C@@H](CN(C)C(C)=O)N(C(=O)NC(C)C)[C@H]2CO)cc1	> 10 µM (inactive)
Cc1noc(C)c1S(=O)(=O)N(C)C[C@@H]1OCc2cn(nn2)CCCC(=O)N([C@H](C)CO)C[C@H]1C	> 10 µM (inactive)
CC(=O)N1[C@H](CO)[C@@H](c2ccccc2)[C@H]1CNC(=O)CN1CCOCC1	> 10 µM (inactive)
O=C(C1CCCCC1)N1[C@H](CO)[C@H]2c3ccccc3NC[C@H]21	> 10 µM (inactive)
O=C(CC(F)(F)F)N1C[C@@H]2[C@H](c3ccccc31)[C@H](CO)N2Cc1cccnc1	> 10 µM (inactive)
C[C@@H]1CN([C@H](C)CO)C(=O)CCCn2nncc2CO[C@H]1CN(C)S(=O)(=O)c1ccccc1C#N	> 10 µM (inactive)
C[C@@H]1CN([C@H](C)CO)C(=O)CCCn2cc(nn2)CO[C@H]1CN(C)C(=O)c1ccc(N2CCN(C)CC2)cc1	> 10 µM (inactive)
C[C@@H]1CN([C@@H](C)CO)C(=O)CCCn2nncc2CO[C@H]1CN(C)C(=O)Nc1cccc(Oc2ccccn2)c1	> 10 µM (inactive)

SMILES	AC50
COCC(=O)N1[C@H](CNC(=O)c2ccccn2)[C@@H](c2ccccc2)[C@@H]1CO	> 10 µM (inactive)
CNC[C@H]1OCc2cnnn2CCCC(=O)N([C@@H](C)CO)C[C@@H]1C	> 10 µM (inactive)
O=C(NC[C@@H]1N[C@@H](CO)[C@H]1c1ccccc1)c1ccccc1F	> 10 µM (inactive)
O=C(Cc1cccnc1)N1[C@@H](CO)[C@@H](c2ccccc2)[C@@H]1CNCC1CCC1	> 10 µM (inactive)
C[C@@H]1CN([C@@H](C)CO)C(=O)CCCn2nncc2CO[C@H]1CN(C)C(=O)Nc1ccnc(N2CCOCC2)c1	> 10 µM (inactive)
C[C@H](CO)N1C[C@H](C)[C@H](CN(C)C(=O)Nc2cccc(C(F)(F)F)c2)OCc2cn(nn2)CCCC1=O	> 10 µM (inactive)
O=C(C1CCOCC1)N1C[C@H]2[C@@H](c3ccccc31)[C@@H](CO)N2C(=O)Nc1ccccc1F	> 10 µM (inactive)
O=C(C1CCCCC1)N1[C@H](CO)[C@@H]2c3ccccc3NC[C@@H]21	> 10 µM (inactive)
CCC(=O)N1[C@H](CO)[C@@H]2c3ccccc3N(C(=O)Nc3ccc(Cl)cc3)C[C@@H]21	> 10 µM (inactive)
O=C(Nc1ccc(F)cc1)N1C[C@H]2[C@@H](c3ccccc31)[C@@H](CO)N2C(=O)c1ccncc1	> 10 µM (inactive)
OC[C@@H]1[C@@H]2c3ccccc3NC[C@@H]2N1Cc1cccnc1	> 10 µM (inactive)
CCC(=O)N(C)C[C@H]1[C@@H](c2ccc(-c3cccc(F)c3)cc2)[C@@H](CO)N1C(C)=O	> 10 µM (inactive)
CNC[C@H]1OCc2cnnn2CCCC(=O)N([C@H](C)CO)C[C@H]1C	> 10 µM (inactive)
O=C(Cc1cccnc1)N1[C@H](CO)[C@H](c2ccccc2)[C@@H]1CNCC1CCC1	> 10 µM (inactive)
C[C@H]1CN([C@@H](C)CO)C(=O)CCCn2nncc2CO[C@@H]1CN(C)Cc1ccc2cccnc2c1	> 10 µM (inactive)
CC(C)N(C[C@H]1[C@H](c2ccccc2)[C@@H](CO)N1S(C)(=O)=O)C(=O)CN(C)C	> 10 µM (inactive)
C/C=C/c1ccc([C@H]2[C@@H](CO)N(C(=O)C3CC3)[C@H]2CNC(=O)NC(C)C)cc1	> 10 µM (inactive)
C[C@H](CO)N1C[C@H](C)[C@H](CN(C)C(=O)Nc2ccc(-c3cccs3)cc2)OCc2cnnn2CCCC1=O	> 10 µM (inactive)
O=S(=O)(NC[C@H]1[C@@H](c2ccccc2)[C@H](CO)N1CC1CC1)c1ccccc1	> 10 µM (inactive)
O=C(C1CCC1)N1C[C@H]2[C@@H](c3ccccc31)[C@@H](CO)N2Cc1ccccc1	> 10 µM (inactive)
CCN(C[C@@H]1[C@@H](c2ccccc2)[C@H](CO)N1C(C)=O)C(=O)NC1CCCC1	> 10 µM (inactive)
CN(C[C@H]1N[C@@H](CO)[C@@H]1c1ccc(C2=CCCC2)cc1)C(=O)c1cccc(F)c1	> 10 µM (inactive)
COCC(=O)N1[C@H](CO)[C@@H]2c3ccccc3N(C)C[C@@H]21	> 10 µM (inactive)
O=C(c1ccccn1)N1C[C@@H]2[C@H](c3ccccc31)[C@@H](CO)N2C(=O)C1CCCCC1	> 10 µM (inactive)
